From patent publication US20240239790A1, “7-Morpholino-1,6-Naphthyridin-5-yl Derivatives and Pharmaceutical Compositions Thereof Useful as DNA-PK Inhibitor” (adMare Therapeutics Society, priority 2021, published 2024)
Read-outs that look alike come from different tables or passages of the source. Values belong to the compound of their own block, whether it stands above or below them.

Experiments:
[1] = tested on: pH2AX induction in HCT116 ATM-/- multicellular tumour spheroids; test: Prodrug Radiation Sensitization in Multicellular Tumour Spheroids, inhibition of pH2AX induction following radiation; format: cell-based; conditions: Homo sapiens, HCT-116, 20 Gy
Procedure: Prodrug compounds were assayed to determine their potency in 3D multicellular spheroids in media maintained under 20% vs 5% oxygen. Multicellular tumour spheroids were grown to approximately 0.5 mm in diameter and irradiated with 20 Gy in combination with inhibitor test compounds to determine their potency using HCT 116 and FaDu cell lines. Experiments were carried out in 96 well plates containing 0.7 mls of MEM media containing 10% FBS and 10 mM glucose under 5% CO2 at 37° C. Following dilution of compounds 1:1000 from DMSO stocks, compounds were serially diluted from 10 μM down to 3.5 nM and 5-10 spheroids added. 96 well plates were constantly stirred to avoid spheroids settling during the course of the experiment. Endpoints were pDNA-PK (ser 2056) or pH2AX (ser 139) status in spheroid cryosections taken 1 or 2 hours following radiation and fixed immediately in formalin. Using tumour cell lines deficient in ATM improved the assay signal to noise and gH2AX readout. Using this assay prodrug activity could be compared in the more oxygenated outer spheroid layers versus less oxygenated hypoxic central cell layers.

[2] = target: T1, DNA-PK phosphorylation at Serine 2056 (Homo sapiens, UniProt P78527); test: Cellular Assay for Inhibition of DNA-PK Phosphorylation at Serine 2056 in FaDu cells (sandwich ELISA, neocarzinostatin); format: cell-based; conditions: pSer2056 DNA-PK, Table 3
T1 construct: FaDu cells were purchased from ATCC; host or cells: FaDu
Procedure: FaDu cells were purchased from ATCC and maintained in MEM alpha medium (Life Technologies, cat. no. 12561) supplemented with 10% fetal bovine serum, and 1% GlutaMAX at 37° C. supplemented with 5% CO2. 50,000 cells were seeded to each well of a 96-well cell culture plate in 50 μL of culture medium and incubated for 16-24 hours. Three-fold serially diluted compounds were prepared in DMSO. Culture media was used to prepare compound treatments to 0.3% DMSO (dimethyl sulphoxide) content. Compound treatments were added to the cells for 1 hour prior incubation, followed by the addition of neocarzinostatin in fresh culture medium to 1 μg/mL final concentration for an additional 2 hours incubation to induce DNA DSBs (double-strand breaks). DMSO controls were incubated with fresh culture medium alone for the additional two hours incubation. The cells were then lysed and frozen at −20° C. Cell lysates were thawed on wet ice and protein concentrations quantified by BCA Protein Assay (Thermo #23225). Lysis buffer was used to normalize lysates by protein content and all lysates were then investigated by sandwich ELISA by means of DNA-PK-specific antibodies (Abcam ab44815: total DNA-PK; ab124918: phosphoserine-2056 DNA-PK) in sandwich ELISA format on the MSD S600MM platform (MesoScale Discovery). % inhibition was calculated for all data points: =1−(DATA_PT−AVERAGE(DMSO controls))/(AVERAGE(NCS controls)−AVERAGE(DMSO controls)). Logarithm of the molar concentration of compound was plotted against percent inhibition to calculate IC50 values, with curve fit settings for data fit to log(inhibitor) vs. normalized response—Variable slope using curve fit software (GraphPad Prism).

FaDu cell line = test: Prodrug Activation in Hypoxic Stirred Tumour Cell Suspensions; conditions: 10 μM, 4 hours
[3] = 5% O2, inner layers, read-out: Prodrug 5% O2 Inner layers EC50
[4] = 5% O2, outer layers, read-out: Prodrug 5% O2 Outer layers EC50
[5] = 20% O2, outer layers, read-out: Prodrug 20% O2 Outer layers EC50

- IC50 [2]: 10000 to 30000 nM
- Fraction of prodrug converted to active form, Hypoxic 0.2% O2 (FaDu cell line): B (B is 0.05 to 0.15)
- Fraction of prodrug converted to active form, Oxic 5% O2 (FaDu cell line): B (B is 0.05 to 0.15)
Structure (SMILES): Cc1cc(C#N)nc(N[C@H]2CC[C@@H](Oc3nc(N4CCOCC4)cc4ncc(OC(C)c5cnc([N+](=O)[O-])n5C)cc34)CC2)n1 (stereo partly drawn) [LFA2094, 6-methyl-2-[[4-[[3-[1-(3-methyl-2-nitro-imidazol-4-yl)ethoxy]-7-morpholino-1,6-naphthyridin-5-yl]oxy]cyclohexyl]amino]pyrimidine-4-carbonitrile]
- EC50 [1, 3]: 500 to 1000 nM
- EC50 [1, 4]: 1000 to 10000 nM
- EC50 [1, 5]: 10000 to 100000 nM

- IC50 [2]: < 100 nM
Structure (SMILES): CN1CCC(Oc2cnc(N[C@H]3CC[C@@H](Oc4nc(N5CCOCC5)cc5ncc(O)cc45)CC3)nc2)C1 (stereo partly drawn) [LFA2033, 5-[4-[[5-(1-methylpyrrolidin-3-yl)oxypyrimidin-2-yl]amino]cyclohexoxy]-7-morpholino-1,6-naphthyridin-3-ol]

- IC50 [2]: < 100 nM
Structure (SMILES): CN1CCN(c2cnc(N[C@H]3CC[C@@H](Oc4nc(N5CCOCC5)cc5ncc(NS(C)(=O)=O)cc45)CC3)nc2)CC1 [LFA2032, N-[5-[4-[[5-(4-methylpiperazin-1-yl)pyrimidin-2-yl]amino]cyclohexoxy]-7-morpholino-1,6-naphthyridin-3-yl]methanesulfonamide]

- IC50 [2]: 100 to 1000 nM
Structure (SMILES): CN1CCC(Oc2cnc(N[C@H]3CC[C@@H](Oc4nc(N5CCOCC5)cc5ncc(NS(C)(=O)=O)cc45)CC3)nc2)C1 (stereo partly drawn) [LFA2025, N-[5-[4-[[5-(1-methylpyrrolidin-3-yl)oxypyrimidin-2-yl]amino]cyclohexoxy]-7-morpholino-1,6-naphthyridin-3-yl]methanesulfonamide]

- IC50 [2]: < 100 nM
Structure (SMILES): CN(C)CCOc1cnc(N[C@H]2CC[C@@H](Oc3nc(N4CCOCC4)cc4ncc(O)cc34)CC2)nc1 [LFA2079, 5-[4-[[5-[2-(dimethylamino)ethoxy]pyrimidin-2-yl]amino]cyclohexoxy]-7-morpholino-1,6-naphthyridin-3-ol]

- IC50 [2]: 10000 to 30000 nM
Structure (SMILES): Cn1c(COc2cnc3cc(N4CCOCC4)nc(O[C@H]4CC[C@@H](Nc5nccnc5C#N)CC4)c3c2)cnc1[N+](=O)[O-] [LFA2095, 3-[[4-[[3-[(3-methyl-2-nitro-imidazol-4-yl)methoxy]-7-morpholino-1,6-naphthyridin-5-yl]oxy]cyclohexyl]amino]pyrazine-2-carbonitrile]

- IC50 [2]: < 100 nM
Structure (SMILES): CN1CCN(c2cnc(N[C@H]3CC[C@@H](Oc4nc(N5CCOCC5)cc5ncc(O)cc45)CC3)nc2)CC1 [LFA2080, 5-[4-[[5-(4-methylpiperazin-1-yl)pyrimidin-2-yl]amino]cyclohexoxy]-7-morpholino-1,6-naphthyridin-3-ol]

The remaining lines, values behind:

Structure (SMILES): Cn1c(Cn2cnnc2-c2cnc3cc(N4CCOCC4)nc(OC4CCC(Nc5ncccn5)CC4)c3c2)cnc1[N+](=O)[O-] (stereo not drawn) [LFA135, N-[4-[[3-[4-[(3-Methyl-2-nitro-imidazol-4-yl)methyl]-1,2,4-triazol-3-yl]-7-morpholino-1,6-naphthyridin-5-yl]oxy]cyclohexyl]pyrimidin-2-amine]
- EC50 [1, 3]: 1000 to 10000 nM
- EC50 [1, 4]: 1000 to 10000 nM
- EC50 [1, 5]: 1000 to 10000 nM
- Fraction of prodrug converted to active form, Hypoxic 0.2% O2 (FaDu cell line): D (D is 0 to 0.02)
- Fraction of prodrug converted to active form, Oxic 5% O2 (FaDu cell line): D (D is 0 to 0.02)

Structure (SMILES): Cn1c(Cn2nnc(-c3cnc4cc(N5CCOCC5)nc(O[C@H]5CC[C@@H](Nc6ncccn6)CC5)c4c3)n2)cnc1[N+](=O)[O-] [LFA121, N-[4-[[3-[2-[(3-Methyl-2-nitro-imidazol-4-yl)methyl]tetrazol-5-yl]-7-morpholino-1,6-naphthyridin-5-yl]oxy]cyclohexyl]pyrimidin-2-amine]
- EC50 [1, 3]: 500 to 1000 nM
- EC50 [1, 4]: 1000 to 10000 nM
- EC50 [1, 5]: 1000 to 10000 nM
- Fraction of prodrug converted to active form, Hypoxic 0.2% O2 (FaDu cell line): A (A is 0.15 to 1)
- Fraction of prodrug converted to active form, Oxic 5% O2 (FaDu cell line): B (B is 0.05 to 0.15)

Structure (SMILES): CS(=O)(=O)Nc1cnc2cc(N3CCOCC3)nc(O[C@H]3CC[C@@H](Nc4cc5c(cn4)CNCC5)CC3)c2c1 [LFA2002, N-[7-morpholino-5-[4-(5,6,7,8-tetrahydro-2,7-naphthyridin-3-ylamino)cyclohexoxy]-1,6-naphthyridin-3-yl]methanesulfonamide]
- IC50 [2]: 100 to 1000 nM

Structure (SMILES): CN1CCc2nc(NC3CCC(Oc4nc(N5CCOCC5)cc5ncc(NS(C)(=O)=O)cc45)CC3)ncc2C1 (stereo not drawn) [LFA2007, N-[5-[4-[(6-methyl-7,8-dihydro-5H-pyrido[4,3-d]pyrimidin-2-yl)amino]cyclohexoxy]-7-morpholino-1,6-naphthyridin-3-yl]methanesulfonamide]
- IC50 [2]: < 100 nM

Structure (SMILES): Cn1c(Cn2nnc(-c3cnc4cc(N5CCOCC5)nc(O[C@H]5CC[C@@H](n6ccnc6)CC5)c4c3)n2)cnc1[N+](=O)[O-] [LFA123, 4-[5-(4-imidazol-1-ylcyclohexoxy)-3-[2-[(3-methyl-2-nitro-imidazol-4-yl)methyl]tetrazol-5-yl]-1,6-naphthyridin-7-yl]morpholine]
- EC50 [1, 3]: 1000 to 10000 nM
- EC50 [1, 4]: 1000 to 10000 nM
- EC50 [1, 5]: 1000 to 10000 nM
- Fraction of prodrug converted to active form, Hypoxic 0.2% O2 (FaDu cell line): A (A is 0.15 to 1)
- Fraction of prodrug converted to active form, Oxic 5% O2 (FaDu cell line): B (B is 0.05 to 0.15)

Structure (SMILES): CN1CCc2nc(N[C@H]3CC[C@@H](Oc4nc(N5CCOCC5)cc5ncc(NS(C)(=O)=O)cc45)CC3)ccc2C1 [LFA2008, N-[5-[4-[(6-methyl-7,8-dihydro-5H-1,6-naphthyridin-2-yl)amino]cyclohexoxy]-7-morpholino-1,6-naphthyridin-3-yl]methanesulfonamide]
- IC50 [2]: < 100 nM

Structure (SMILES): CN1CCN(c2ccc(N[C@H]3CC[C@@H](Oc4nc(N5CCOCC5)cc5ncc(NS(C)(=O)=O)cc45)CC3)nc2)CC1 [LFA2001, N-[5-[4-[[5-(4-methylpiperazin-1-yl)-2-pyridyl]amino]cyclohexoxy]-7-morpholino-1,6-naphthyridin-3-yl]methanesulfonamide]
- IC50 [2]: < 100 nM

Structure (SMILES): CN1CCC(Oc2ccc(N[C@H]3CC[C@@H](Oc4nc(N5CCOCC5)cc5ncc(NS(C)(=O)=O)cc45)CC3)nc2)C1 (stereo partly drawn) [LFA2006, N-[5-[4-[[5-(1-methylpyrrolidin-3-yl)oxy-2-pyridyl]amino]cyclohexoxy]-7-morpholino-1,6-naphthyridin-3-yl]methanesulfonamide]
- IC50 [2]: < 100 nM

Structure (SMILES): CS(=O)(=O)Nc1cnc2cc(N3CCOCC3)nc(O[C@H]3CC[C@@H](Nc4ccc5c(n4)CCNC5)CC3)c2c1 [LFA2003, N-[7-morpholino-5-[4-(5,6,7,8-tetrahydro-1,6-naphthyridin-2-ylamino)cyclohexoxy]-1,6-naphthyridin-3-yl]methanesulfonamide]
- IC50 [2]: 100 to 1000 nM

Structure (SMILES): CS(=O)(=O)Nc1cnc2cc(N3CCOCC3)nc(O[C@H]3CC[C@@H](Nc4ncc(N5CC6CNCC6C5)cn4)CC3)c2c1 (stereo partly drawn) [LFA2015, N-[5-[4-[[5-(2,3,3a,4,6,6a-hexahydro-1H-pyrrolo[3,4-c]pyrrol-5-yl)pyrimidin-2-yl]amino]cyclohexoxy]-7-morpholino-1,6-naphthyridin-3-yl]methanesulfonamide]
- IC50 [2]: 100 to 1000 nM

Structure (SMILES): CN(C)CCOc1cnc(N[C@H]2CC[C@@H](Oc3nc(N4CCOCC4)cc4ncc(NS(C)(=O)=O)cc34)CC2)nc1 [LFA2024, N-[5-[4-[[5-[2-(dimethylamino)ethoxy]pyrimidin-2-yl]amino]cyclohexoxy]-7-morpholino-1,6-naphthyridin-3-yl]methanesulfonamide]
- IC50 [2]: 100 to 1000 nM

Structure (SMILES): CS(=O)(=O)Nc1cnc2cc(N3CCOCC3)nc(O[C@H]3CC[C@@H](Nc4ncc(N5CC6CCC(C5)N6)cn4)CC3)c2c1 [LFA2016, N-[5-[4-[[5-(3,8-diazabicyclo[3.2.1]octan-3-yl)pyrimidin-2-yl]amino]cyclohexoxy]-7-morpholino-1,6-naphthyridin-3-yl]methanesulfonamide]
- IC50 [2]: 100 to 1000 nM
